23 compounds from patent US9944618B2, “Inhibiting neurotransmitter reuptake” (Mayo Foundation for Medical Education and Research, priority 2013, dated 2018) can be followed below.

Where two headings read alike, the source gives them in different places.

Usually pKa stands for the negative logarithm of the acid dissociation constant. What is called Ki is a measure of affinity in units of concentration, obtained from inhibition or displacement. As usually defined, the IC50 is the concentration needed to halve the response being measured.

The nature of data set [1]: pKa of basic centres (Table 1). It is filed as physicochemical.
In data set [2] the target is human norepinephrine transporter (Homo sapiens (Human), UniProt P23975). Briefly: Human NET (norepinephrine transporter) uptake assay. It is filed as cell-based. The following applies: read-out: hNET Ki. An outline of the steps: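 HEK293F cells transfected with human NET were thawed, plated at about 60,000 cells/well and held at 37 °C for at least 3 h. Compounds came from 10 mM DMSO stocks, with nomifensine as control, in 1×HBSS/0.02 M HEPES. Uptake was followed with a neurotransmitter transporter dye, dosed as % of vendor reconstitution, in triplicate.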
Sequence of human norepinephrine transporter (P23975 whole entry): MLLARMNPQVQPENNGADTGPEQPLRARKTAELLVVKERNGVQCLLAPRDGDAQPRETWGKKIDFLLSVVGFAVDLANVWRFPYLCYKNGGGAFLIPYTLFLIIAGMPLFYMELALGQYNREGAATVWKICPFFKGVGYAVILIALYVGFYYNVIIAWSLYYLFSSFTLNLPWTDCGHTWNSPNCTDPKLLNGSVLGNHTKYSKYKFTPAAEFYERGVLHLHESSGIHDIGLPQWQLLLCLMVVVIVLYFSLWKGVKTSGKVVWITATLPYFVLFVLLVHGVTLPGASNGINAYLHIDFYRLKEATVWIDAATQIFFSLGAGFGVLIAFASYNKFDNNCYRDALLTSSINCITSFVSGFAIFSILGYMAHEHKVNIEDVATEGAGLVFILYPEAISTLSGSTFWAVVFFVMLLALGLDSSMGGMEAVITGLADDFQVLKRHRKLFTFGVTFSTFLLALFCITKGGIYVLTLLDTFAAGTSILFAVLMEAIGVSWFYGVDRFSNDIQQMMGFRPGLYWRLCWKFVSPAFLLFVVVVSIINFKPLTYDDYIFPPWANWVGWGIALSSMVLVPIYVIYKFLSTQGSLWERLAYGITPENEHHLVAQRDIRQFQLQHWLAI

For data set [3], the target named is human serotonin transporter (Homo sapiens (Human), UniProt P31645). Briefly: Human SERT (serotonin transporter) uptake assay. It is filed as cell-based. The following applies: read-out: hSERT Ki. Summed up: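 HEK293F cells transfected with human SERT, about 60,000 per well, settled for ≥3 h at 37° C before compound addition. Uptake was followed with a fluorescent transporter dye in HBSS with 0.02 M HEPES. Background came from 10 μM fluoxetine, nomifensine was the control, n=3.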
Sequence of human serotonin transporter (P31645 whole entry): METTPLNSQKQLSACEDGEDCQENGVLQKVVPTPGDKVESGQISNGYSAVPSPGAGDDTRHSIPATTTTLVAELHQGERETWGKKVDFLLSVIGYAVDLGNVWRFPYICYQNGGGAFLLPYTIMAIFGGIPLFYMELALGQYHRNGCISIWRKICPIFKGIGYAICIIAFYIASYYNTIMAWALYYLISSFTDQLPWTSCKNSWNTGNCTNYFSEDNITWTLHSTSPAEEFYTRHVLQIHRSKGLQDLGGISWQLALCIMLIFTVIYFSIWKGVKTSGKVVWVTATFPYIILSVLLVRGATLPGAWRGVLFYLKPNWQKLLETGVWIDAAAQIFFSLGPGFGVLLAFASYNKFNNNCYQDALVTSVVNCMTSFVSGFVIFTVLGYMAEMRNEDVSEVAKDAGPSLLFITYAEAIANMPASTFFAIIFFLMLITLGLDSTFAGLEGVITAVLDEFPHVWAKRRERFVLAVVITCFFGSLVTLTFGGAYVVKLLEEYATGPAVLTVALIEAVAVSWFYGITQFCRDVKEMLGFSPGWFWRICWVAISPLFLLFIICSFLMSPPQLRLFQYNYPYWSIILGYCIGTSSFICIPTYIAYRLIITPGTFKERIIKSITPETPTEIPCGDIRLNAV

In a further data set the target is CYP2D6 (Homo sapiens (Human), UniProt P10635). In words: Cytochrome P450 inhibition assay, recombinant CYP2D6 (MAMC substrate). The conditions noted are these: recombinant enzyme. Format: in vitro ADME.
Sequence of CYP2D6 (P10635 whole entry): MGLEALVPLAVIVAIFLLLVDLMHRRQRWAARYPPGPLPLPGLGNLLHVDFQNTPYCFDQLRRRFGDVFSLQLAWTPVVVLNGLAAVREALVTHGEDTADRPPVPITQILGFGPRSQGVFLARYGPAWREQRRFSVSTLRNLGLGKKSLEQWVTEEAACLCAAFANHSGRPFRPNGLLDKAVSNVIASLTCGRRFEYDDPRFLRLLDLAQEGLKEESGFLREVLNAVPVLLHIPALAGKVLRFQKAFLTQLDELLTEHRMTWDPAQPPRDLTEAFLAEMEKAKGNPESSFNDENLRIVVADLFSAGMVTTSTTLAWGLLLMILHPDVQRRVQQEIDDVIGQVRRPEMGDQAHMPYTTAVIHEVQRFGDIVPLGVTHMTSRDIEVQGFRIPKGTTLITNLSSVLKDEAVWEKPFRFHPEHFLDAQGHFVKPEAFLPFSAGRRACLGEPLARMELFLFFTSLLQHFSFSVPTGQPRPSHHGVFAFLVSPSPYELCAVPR
A further data set concerns the target hERG (Homo sapiens (Human), UniProt Q12809). Briefly: Human ERG (hERG) assay, hERG currents in hERG-expressing CHO cells. Format: cell-based. The following applies: hERG-expressing CHO cells. From the text: The voltage-dependent potassium channel encoded by the human ether-a-go-go-related gene (hERG) is believed to play a key role in repolarisation of the ventricular cardiac action potential. Changes in its activity, caused either by inherited mutations of the gene sequence or pharmacological modification, can lead to prolongation of action potential duration. This can lead to prolongation of the QT interval recorded in man on an electrocardiogram and to a potentially fatal cardiac arrhythmia known as Torsades de Pointes.
hERG currents were recorded from hERG-expressing CHO cells. The biophysical and pharmacological characterization of the hERG currents in these cells was performed.

The target in another data set is CYP3A4 (Homo sapiens (Human), UniProt P08684). In words: Cytochrome P450 inhibition assay, recombinant CYP3A4 (BFC substrate). Format: in vitro ADME. The conditions noted are these: recombinant enzyme.
Sequence of CYP3A4 (P08684 whole entry): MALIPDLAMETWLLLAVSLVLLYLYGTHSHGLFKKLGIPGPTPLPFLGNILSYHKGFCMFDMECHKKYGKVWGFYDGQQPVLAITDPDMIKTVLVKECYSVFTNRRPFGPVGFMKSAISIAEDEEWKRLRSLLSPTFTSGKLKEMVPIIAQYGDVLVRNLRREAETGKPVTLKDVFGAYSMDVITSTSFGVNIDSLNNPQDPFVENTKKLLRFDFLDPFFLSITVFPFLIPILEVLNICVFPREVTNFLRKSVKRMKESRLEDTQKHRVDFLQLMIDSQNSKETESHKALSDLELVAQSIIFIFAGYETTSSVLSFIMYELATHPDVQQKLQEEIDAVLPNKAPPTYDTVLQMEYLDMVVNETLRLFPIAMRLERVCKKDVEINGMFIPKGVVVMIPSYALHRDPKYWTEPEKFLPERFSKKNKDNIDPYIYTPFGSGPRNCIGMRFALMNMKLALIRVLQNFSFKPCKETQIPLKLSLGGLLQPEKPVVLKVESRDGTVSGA
In data set [4] the target is human dopamine transporter (Homo sapiens (Human), UniProt Q01959). In words: Human DAT (dopamine transporter) uptake assay. The following applies: read-out: hDAT Ki. It is filed as cell-based. An outline of the steps: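 Uptake inhibition was measured in HEK293F cells transfected with human DAT, plated at ~60,000 cells/well and settled ≥3 h at 37 °C. Compounds came from 10 mM DMSO stocks. Read-out was uptake of a fluorescent neurotransmitter transporter dye in HBSS with 0.02 M HEPES, with dye level given as % of vendor reconstitution; n=3.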
Sequence of human dopamine transporter (Q01959 whole entry): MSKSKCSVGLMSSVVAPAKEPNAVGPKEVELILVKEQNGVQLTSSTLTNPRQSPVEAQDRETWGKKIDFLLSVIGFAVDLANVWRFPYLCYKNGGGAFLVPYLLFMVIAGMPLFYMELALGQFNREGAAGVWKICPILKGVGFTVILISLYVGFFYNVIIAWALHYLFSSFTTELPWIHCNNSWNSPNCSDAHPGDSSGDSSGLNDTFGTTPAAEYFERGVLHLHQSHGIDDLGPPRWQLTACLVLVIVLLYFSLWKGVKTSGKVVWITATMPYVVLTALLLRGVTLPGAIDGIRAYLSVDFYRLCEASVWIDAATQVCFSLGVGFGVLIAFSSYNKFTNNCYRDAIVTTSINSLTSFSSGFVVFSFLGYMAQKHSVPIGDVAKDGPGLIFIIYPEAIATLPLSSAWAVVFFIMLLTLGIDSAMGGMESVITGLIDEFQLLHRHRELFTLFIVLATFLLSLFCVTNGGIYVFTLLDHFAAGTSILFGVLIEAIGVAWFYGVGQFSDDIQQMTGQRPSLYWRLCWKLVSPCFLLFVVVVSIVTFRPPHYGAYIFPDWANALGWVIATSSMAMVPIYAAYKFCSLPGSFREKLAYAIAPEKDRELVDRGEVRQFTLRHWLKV

[5] abbreviates: first base, e.g., an aliphatic primary, secondary, or tertiary amine, read-out: pKa (Base 1).
[6] abbreviates: second base in the same molecule (if present), read-out: pKa (Base 2).

Sequence of hERG (Q12809 whole entry): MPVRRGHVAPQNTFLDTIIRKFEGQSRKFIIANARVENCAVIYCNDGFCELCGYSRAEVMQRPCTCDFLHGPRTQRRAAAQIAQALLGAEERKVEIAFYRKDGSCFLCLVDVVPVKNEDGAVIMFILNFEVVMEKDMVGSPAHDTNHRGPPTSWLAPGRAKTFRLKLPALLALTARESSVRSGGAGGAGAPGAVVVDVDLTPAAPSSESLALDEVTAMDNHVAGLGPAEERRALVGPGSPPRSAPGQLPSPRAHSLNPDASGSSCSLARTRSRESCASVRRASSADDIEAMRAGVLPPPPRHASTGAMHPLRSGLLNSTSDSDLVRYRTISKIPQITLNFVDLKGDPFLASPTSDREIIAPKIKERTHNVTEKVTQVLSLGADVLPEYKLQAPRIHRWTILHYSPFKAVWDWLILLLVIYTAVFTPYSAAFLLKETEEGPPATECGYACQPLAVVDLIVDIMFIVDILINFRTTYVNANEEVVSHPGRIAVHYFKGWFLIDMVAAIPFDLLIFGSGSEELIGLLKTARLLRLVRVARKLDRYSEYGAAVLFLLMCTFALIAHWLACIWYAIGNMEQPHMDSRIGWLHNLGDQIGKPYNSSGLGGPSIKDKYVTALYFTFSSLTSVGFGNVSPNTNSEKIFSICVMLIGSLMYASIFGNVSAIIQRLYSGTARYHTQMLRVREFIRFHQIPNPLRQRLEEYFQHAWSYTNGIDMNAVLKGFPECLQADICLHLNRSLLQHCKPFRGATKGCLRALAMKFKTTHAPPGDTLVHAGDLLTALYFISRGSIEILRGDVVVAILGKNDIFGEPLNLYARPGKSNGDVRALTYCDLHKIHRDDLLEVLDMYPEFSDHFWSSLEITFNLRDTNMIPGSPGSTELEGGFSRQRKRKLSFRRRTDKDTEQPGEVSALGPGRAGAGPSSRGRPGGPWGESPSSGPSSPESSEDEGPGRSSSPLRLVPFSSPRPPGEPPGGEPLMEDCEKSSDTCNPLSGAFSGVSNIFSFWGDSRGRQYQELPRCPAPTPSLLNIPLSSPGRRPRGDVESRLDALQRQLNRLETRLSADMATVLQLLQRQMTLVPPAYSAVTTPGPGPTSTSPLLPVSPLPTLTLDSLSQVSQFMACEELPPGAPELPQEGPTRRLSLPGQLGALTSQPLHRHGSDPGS
Protocol for CYP3A4: Recombinant enzymes, 3A4 and 2D6, generated using the ABL yeast expression system were used. […] The assay mixture also included K2HPO4 (pH 7.4; conc. 0.1 M) and NADPH (conc. 1 mM). The incubation time was 30 minutes, and the reference inhibitor was A-naphthoflavone. For CYP2D6, the enzyme amount was 2 pmol per well, and the substrate (7-methoxy-4-(aminomethyl)-coumarin; MAMC) was used at 20 μM. The assay mixture also included K2HPO4 (pH 7.4; conc. 0.1 M) and NADPH (conc. 0.06 mM). The incubation time was 35 minutes, and the reference inhibitor was quinidine.
Briefly, 0.6 μL of serially diluted compound was added to 75 μL water. 10 μL of diluted compound in water was then added to each assay plate. 20 μL of a K2HPO4, enzyme, and substrate mixture was added. After 10 minutes of room temperature pre-incubation, 10 μL of NADPH was added, and the plates were placed at 37° C. for 30 or 35 minutes depending on the enzyme being tested. After the incubation was complete, 20 μL of 0.1% Tris/ACN was added to the plate. The plate was read on a FluorStar fluorescence plate reader.

Turning to `CNC[C@H](c1ccc2ccccc2c1)[C@H](O)c1ccccc1C` (racemic) [Compound 56], in data set [1] (setting [5]), the pKa was 9.7. The Ki in data set [2] worked out at 0.0047 µM; in data set [3], 0.0067 µM; in data set [4], 0.0404 µM. In addition, the figures for the IC50 on CYP2D6, against hERG and at CYP3A4 were 0.24 µM, 22 µM and 11 µM, respectively.
Turning to `CNC[C@H](c1ccc2ccccc2c1)[C@H](OCc1nc(C)no1)c1ccccc1` [Compound 67], the pKa in data set [1] (setting [5]) came to 9.6. The Ki came out at 0.0082 µM in data set [2], 0.0007 µM in data set [3] and 0.0697 µM in data set [4]. Besides, the IC50 on CYP2D6 is 0.33 µM; at hERG it was 15 µM; on CYP3A4, 20 µM.
For the compound `CNC[C@H](c1ccc(Cl)c(Cl)c1)[C@H](O)c1ccccc1` [Compound 10], in data set [1] (setting [5]), the pKa stood at 9.4. Also, the results for the Ki in data set [2], in data set [3] and in data set [4] were 0.0015 µM, 0.0117 µM and 0.0073 µM, respectively. The values for the IC50 at CYP2D6, on hERG and at CYP3A4 were 0.12 µM, 9.1 µM and 20 µM, respectively.
Consider `CNC[C@H](c1ccc2ccccc2c1)[C@H](O)c1ccc(Cl)nc1` [Compound 26], for which, in data set [1] (setting [5]), the pKa stood at 9.6. The Ki in data set [2] came out at 0.0022 µM; in data set [3], 0.0016 µM; in data set [4] it was 0.0535 µM. For the same compound, the IC50 is 0.027 µM on CYP2D6, 7.5 µM against hERG and 20 µM at CYP3A4.
`CNC[C@@H](c1ccc2ccccc2c1)[C@H](O)c1ccccn1` (racemic) [Compound 72]: the pKa in data set [1] (setting [5]) was 9.6; in data set [1] (setting [6]) it was 4.1. For the same compound, the values for the Ki in data set [2], in data set [3] and in data set [4] were 0.0101 µM, 0.0276 µM and 0.1 µM, respectively. Besides, the IC50 at CYP2D6 was 0.76 µM; against hERG it was 33 µM; on CYP3A4 it was no less than 20 µM.
Take `CNCC(c1ccc(Br)c(Cl)c1)[C@H](O)c1ccccc1` (some centres unmarked) [Compound 16]: the pKa in data set [1] (setting [5]) amounted to 9.4. Moreover, the Ki in data set [2] was found to be 0.0018 µM; in data set [3], 0.0063 µM; in data set [4] it was 0.0066 µM. Besides, the values for the IC50 on CYP2D6, on hERG and at CYP3A4 were 0.23 µM, 5 µM and 19 µM, respectively.
Consider `CNC[C@@H](c1ccc(Br)c(Cl)c1)[C@@H](O)c1ccccc1` [Compound 110], for which the pKa in data set [1] (setting [5]) was found to be 9.4. For the same compound, the Ki in data set [2] was determined as 0.142 µM; in data set [3] it was 0.677 µM; in data set [4], 0.024 µM. The figures for the IC50 on CYP2D6, at hERG and on CYP3A4 were 1.9 µM, 6.8 µM and 17 µM, respectively.
As for `CNC[C@H](c1ccc(Br)c(Cl)c1)[C@@H](O)c1ccccc1` [Compound 21], the pKa in data set [1] (setting [5]) was found to be 9.4. The Ki in data set [2] is 0.002 µM; in data set [3], 0.0664 µM; in data set [4], 0.0324 µM. The figures for the IC50 on CYP2D6, against hERG and on CYP3A4 were 0.47 µM, 23 µM and 20 µM, respectively.
As to `CN(C)CC(C)(c1ccc2ccccc2c1)C(O)c1ccccc1` (centres unmarked) [Compound 86], the pKa in data set [1] (setting [5]) came out at 9.2. Besides, the Ki amounted to 0.0167 µM in data set [2], 0.0027 µM in data set [3] and 0.0099 µM in data set [4]. The values for the IC50 on CYP2D6, on hERG and at CYP3A4 were 0.29 µM, 0.85 µM and 20 µM, respectively.
Turning to `C[C@](CN)(Cc1cccnc1)c1ccc2ccccc2c1` [Compound 42], the pKa in data set [1] (setting [5]) came out at 9.2; in data set [1] (setting [6]), 5.2. Besides, the Ki in data set [2] is 0.0032 µM; in data set [3], 0.0003 µM; in data set [4], 0.0895 µM. For the same compound, the IC50 came to 1.1 µM at CYP2D6, 27 µM against hERG and 3.4 µM on CYP3A4.
For the compound `CNC[C@H](c1ccc2ccccc2c1)[C@H](F)c1ccccc1` [Compound 9], the pKa in data set [1] (setting [5]) stood at 9.4. In addition, the Ki in data set [2] worked out at 0.0015 µM; in data set [3], 0.0057 µM; in data set [4], 0.0423 µM. The IC50 on CYP2D6 was determined as 0.21 µM; against hERG, 9.5 µM; at CYP3A4, 8.6 µM.
As for `CNCC(C[C@H](O)c1ccccc1)c1ccc2ccccc2c1` (some centres unmarked) [Compound 85], in data set [1] (setting [5]), the pKa turned out to be 10.1. The Ki in data set [2] is 0.0164 µM; in data set [3], 0.0161 µM; in data set [4], 0.247 µM. In addition, the IC50 came out at 1 µM at CYP2D6, 21 µM against hERG and 20 µM at CYP3A4.
In the case of `CNCC(Cc1ccc(C)s1)c1ccc2ccccc2c1` (centres unmarked) [Compound 139], the pKa in data set [1] (setting [5]) is 10. For the same compound, the values for the Ki in data set [2], in data set [3] and in data set [4] were 0.005 µM, 0.0064 µM and 0.0887 µM, respectively. Also, the IC50 amounted to 0.62 µM at CYP2D6, 3.1 µM against hERG and 13 µM on CYP3A4.
Regarding `CNC[C@@H](c1ccc(Cl)c(Cl)c1)[C@@H](O)c1cccc(SC)c1` [Compound 154], in data set [1] (first base, e.g., an aliphatic primary, secondary, or tertiary amine), the “pKa (Base 1)” value is reported as 9.4. Further, the Ki in data set [2] worked out at 0.0371 µM; in data set [3] it was 0.0384 µM; in data set [4], 0.0403 µM. Also, the values for the IC50 on CYP2D6, against hERG and on CYP3A4 were 0.29 µM, 2.2 µM and 6.9 µM, respectively.
In the case of `CNC[C@H](c1ccc2ccccc2c1)[C@@H](Cl)c1ccccc1` [Compound 61], the pKa in data set [1] (setting [5]) stood at 9.5. In addition, the values for the Ki in data set [2], in data set [3] and in data set [4] were 0.0058 µM, 0.0009 µM and 0.0146 µM, respectively. Moreover, the IC50 came out at 0.3 µM at CYP2D6, 9.8 µM on hERG and 20 µM on CYP3A4.
Regarding `CNC[C@H](c1ccc2ccccc2c1)[C@H](OCC(=O)NC1CC1)c1ccccc1` [Compound 13], the pKa in data set [1] (setting [5]) turned out to be 9.6. The Ki in data set [2] came to 0.0016 µM; in data set [3] it was 0.0054 µM; in data set [4], 0.0197 µM. In addition, the IC50 is 0.4 µM at CYP2D6, 19 µM against hERG and 17 µM on CYP3A4.
Take `CNC[C@H](c1ccc(Br)c(Cl)c1)[C@H](O)c1ccccc1` (racemic) [Compound 43]: in data set [1] (setting [5]), the pKa stood at 9.4. Besides, the Ki in data set [2] came to 0.0033 µM; in data set [3], 0.0197 µM; in data set [4], 0.0073 µM. The IC50 came out at 0.11 µM on CYP2D6, 7.1 µM against hERG and 8.1 µM at CYP3A4.
On to `CNC[C@H](c1ccc2ccccc2c1)[C@H](OCC(=O)N1CC[C@@H](O)C1)c1ccccc1` [Compound 34], for which the pKa in data set [1] (setting [5]) was 9.6. Also, the Ki is 0.0027 µM in data set [2], 0.0075 µM in data set [3] and 0.0285 µM in data set [4]. Also, the IC50 was found to be 12 µM at CYP2D6, 33 µM at hERG and 20 µM at CYP3A4.
Turning to `CNCC(Cc1cccs1)c1ccc2ccccc2c1` (racemic) [Compound 40], the pKa in data set [1] (setting [5]) amounted to 10. The Ki in data set [2] was 0.0032 µM; in data set [3], 0.0033 µM; in data set [4], 0.114 µM. Also, the IC50 amounted to 0.96 µM at CYP2D6, 4.1 µM against hERG and 19 µM on CYP3A4.
`CNC[C@H](c1ccc2ccccc2c1)[C@H](N)c1ccccc1` [Compound 87]: the pKa is 9.8 in data set [1] (setting [5]) and 8.5 in data set [1] (setting [6]). In addition, the Ki in data set [2] worked out at 0.0181 µM; in data set [3], 0.0061 µM; in data set [4] it was 0.114 µM. Moreover, the IC50 on CYP2D6 was found to be 0.066 µM; on hERG, 17 µM; at CYP3A4, 0.94 µM.
Take `CNC[C@H](c1ccc2ccccc2c1)[C@@H](O)c1ccccc1F` [Compound 60]: in data set [1] (setting [5]), the pKa came out at 9.7. Further, the Ki amounted to 0.0053 µM in data set [2], 0.0107 µM in data set [3] and 0.0832 µM in data set [4]. Also, the IC50 on CYP2D6 turned out to be 0.56 µM; at hERG, 28 µM; on CYP3A4 it was 20 µM.
In the case of `CNC[C@H](c1ccc(Cl)c(Cl)c1)[C@@H](O)c1ccccc1SC` [Compound 97], in data set [1] (setting [5]), the pKa stood at 9.4. Further, the values for the Ki in data set [2], in data set [3] and in data set [4] were 0.0382 µM, 0.0784 µM and 0.0226 µM, respectively. Further, the IC50 at CYP2D6 was 0.18 µM; against hERG, 8 µM; at CYP3A4 it was 15 µM.
As for `CNC[C@H](c1ccc2ccccc2c1)[C@H](OCc1noc(C)n1)c1ccccc1` [Compound 22], the pKa in data set [1] (setting [5]) came to 9.6. Also, the Ki was found to be 0.002 µM in data set [2], 0.0021 µM in data set [3] and 0.0567 µM in data set [4]. Also, the IC50 at CYP2D6 is 0.18 µM; against hERG, 15 µM; at CYP3A4, 15 µM.
